Laboratory results taken from patent US8455649B2, “Insecticidal substituted azinyl derivatives” (Dow AgroSciences, LLC, priority 2007, dated 2013).

Assays:
[1] = tested on: Corn Earworm (Helicoverpa zea); experiment: Insecticidal diet-surface test for corn earworm; assay type: in vivo; details: 120 h, second-instar larvae on treated diet, 50 μg/cm^2 on diet surface, 5 days after treatment, 8 insects per treatment, read-out: HELIZE AVG % Mortality (50 μg/cm^2)
Procedure: (§1) The compounds identified in Table 1 were tested against beet armyworm and corn earworm as follows:
(§2) Insecticidal Test for Corn Earworm (Helicoverpa zea) and Beet Armyworm (Spodoptera exigua).
(§3) To prepare test solution, the test compound was formulated at 2000 ppm solution as 4 mg/2 mL of 9 acetone:1 tap water. 50 μL of the 2000 ppm (equivalent to 50 μg/cm^2 dose on diet surface area) test solution was pipetted upon the surface of 1 mL of lepidopteran diet (Southland Multi-Species Lepidopteran Diet) contained in each of eight wells per insect species (one well=1 replication). A second-instar corn earworm and beet armyworm was placed upon the treated diet in each well once the solvent had air-dried. Trays containing the treated diet and larvae were covered and then held in a growth chamber at 25° C., 50-55% RH, and 16 hr light:8 hr dark for 5 days. Observation were conducted 5 days after treatment and infestation. The number of dead insects of 8 per species per treatment was then determined and the results are given in Table 2 as a percent control at a dose of […].

[2] = tested on: Beet Armyworm (Spodoptera exigua); experiment: Insecticidal diet-surface test for beet armyworm; assay type: in vivo; details: 120 h, second-instar larvae on treated diet, 50 μg/cm^2 on diet surface, 5 days after treatment, 8 insects per treatment, read-out: LAPHEG AVG % Mortality (50 μg/cm^2)
Procedure: as §1, §2, §3

Compound | mortality at 50 µg/cm2 [1] | mortality at 50 µg/cm2 [2]
O=C(Nc1nc(OCC(F)(F)F)cc(OCC(F)(F)F)n1)N(c1ccc(OC(F)(F)F)cc1)C(F)(F)F [Compound 93] | 100% | 100%
CN(C(=O)Nc1nc(OCC(F)(F)F)cc(OCC(F)(F)F)n1)c1ccc(S(=O)(=O)C(F)(F)F)cc1 [Compound 94] | 100% | 100%
O=C(Nc1nc(OCC(F)(F)F)cc(OCC(F)(F)F)n1)N(CCF)c1ccc(OC(F)(F)F)cc1 [Compound 95] | 100% | 100%
[2H]C([2H])([2H])N(C(=O)Nc1nc(OCC(F)(F)F)cc(OCC(F)(F)F)n1)c1ccc(C(F)(F)F)cc1 [Compound 96] | 100% | 100%
O=C(Nc1ccc(C(F)(F)F)cc1)Nc1nc(Cl)cc(OCC(F)(F)F)n1 [Compound 97] | 100% | 100%
CCNCCNc1cc(OCC(F)(F)F)nc(NC(=O)Nc2ccc(C(F)(F)F)cc2)n1 [Compound 98] | 100% | 100%
O=C(Nc1ccc(C(F)(F)F)cc1)Nc1nc(NCC(F)(F)F)cc(OCC(F)(F)F)n1 [Compound 99] | 100% | 100%
CCOc1cc(OCC(F)(F)F)nc(NC(=O)Nc2ccc(C(F)(F)F)cc2)n1 [Compound 100] | 100% | 100%
CC1(COc2cc(OCC(F)(F)F)nc(NC(=O)Nc3ccc(C(F)(F)F)cc3)n2)CC1(Cl)Cl (centres unmarked) [Compound 101] | 100% | 100%
O=C(Nc1ccc(C(F)(F)F)cc1)Nc1nc(OCC(F)(F)F)cc(C(F)(F)F)n1 [Compound 102, N-(4-trifluoromethylphenyl)-N′-[4-trifluoromethyl-6-(2,2,2-trifluoroethoxy)pyrimidin-2-yl]urea] | 100% | 0%
CCOc1cc(OCC(F)(F)F)nc(NC(=O)N(C)c2ccc(Br)cc2)n1 [Compound 103, N-(4-bromophenyl)-N′-[4-ethoxy-6-(2,2,2-trifluoroethoxy)-pyrimidin-2-yl]-N-methylurea] | 100% | 25%
O=C(Nc1ccc(OC(F)(F)F)cc1)Nc1nc(OCC(F)(F)C(F)(F)F)cc(OCC(F)(F)C(F)(F)F)n1 [Compound 104] | 100% | 0%
O=C(Nc1ccc(C(F)(F)F)cc1)Nc1cc(OCC(F)(F)F)nc(OCC(F)(F)F)n1 [Compound 105] | 0% | 100%
CN(C(=O)Nc1cc(OCC(F)(F)F)nc(OCC(F)(F)F)n1)c1ccc(OC(F)(F)F)cc1 [Compound 106] | 100% | 100%
CN(C(=O)Nc1cc(OCC(F)(F)F)nc(OCC(F)(F)F)n1)c1ccc(C(F)(F)F)cc1 [Compound 107] | 100% | 100%
CN(C(=O)Nc1cc(OCC(F)(F)F)nc(OCC(F)(F)F)n1)c1ccc(Br)cc1 [Compound 108] | 100% | 100%
CN(C(=O)Nc1cc(OCC(F)(F)F)nc(OCC(F)(F)F)n1)c1ccc(Br)nc1 [Compound 109] | 25% | 88%
CN(C(=O)Nc1cc(OCC(F)(F)F)nc(OCC(F)(F)F)n1)c1ccc(Cl)nc1 [Compound 110] | 0% | 100%
CN(C(=O)Nc1cc(OCC(F)(F)F)nc(OCC(F)(F)F)n1)c1ccc([N+](=O)[O-])cc1 [Compound 111] | 88% | 100%
CN(C(=O)Nc1cc(OCC(F)(F)F)nc(OCC(F)(F)F)n1)c1ccc(Cl)cc1 [Compound 112] | 100% | 50%
CN(C(=O)Nc1cc(OCC(F)(F)F)nc(OCC(F)(F)F)n1)c1ccc(C(F)(F)F)nc1 [Compound 113] | 0% | 100%
O=C(Nc1cc(OCC(F)(F)F)nc(OCC(F)(F)F)n1)N(CCF)c1ccc(OC(F)(F)F)cc1 [Compound 114] | 100% | 100%
O=C(Nc1ccc(OC(F)(F)F)cc1)Nc1cc(OCC(F)(F)F)nc(OCC(F)(F)F)n1 [Compound 115] | 75% | 38%
O=C(Nc1ccc(C(F)(F)F)cc1)Nc1nc(OCC(F)(F)F)nc(OCC(F)(F)F)n1 [Compound 116] | 0% | 100%
O=C(Nc1ccc(Br)cc1)Nc1nc(OCC(F)(F)F)nc(OCC(F)(F)F)n1 [Compound 117] | 0% | 100%

Compound | mortality at 50 µg/cm2 [1] | mortality at 50 µg/cm2 [2]
CN(C(=O)Nc1nc(OCC(F)(F)F)nc(OCC(F)(F)F)n1)c1ccc(C(F)(F)F)cc1 [Compound 118, N′-[4,6-bis(2,2,2-trifluoroethoxy)-1,3,5-triazin-2-yl]-N-(4-trifluoromethylphenyl)-N-methylurea] | 100% | 100%
CN(C(=O)Nc1nc(OCC(F)(F)F)nc(OCC(F)(F)F)n1)c1ccc(Br)cc1 [Compound 119] | 88% | 100%
CN(C(=O)Nc1nc(OCC(F)(F)F)nc(OCC(F)(F)F)n1)c1ccc(OC(F)(F)C(F)F)cc1 [Compound 120] | 100% | 100%
CN(C(=O)Nc1nc(OCC(F)(F)F)nc(OCC(F)(F)F)n1)c1ccc(Cl)cc1 [Compound 121, N′-[4,6-bis(2,2,2-trifluoroethoxy)-1,3,5-triazin-2-yl]-N-(4-chlorophenyl)-N-methylurea] | 100% | 100%
CN(C(=O)Nc1nc(OCC(F)(F)F)cc(OCC(F)(F)F)n1)c1ccc(C(F)(F)F)cn1 [Compound 122] | 88% | 100%
CN(C(=O)Nc1nc(OCC(F)(F)F)cc(OCC(F)(F)F)n1)c1ccc(Br)cn1 [Compound 123] | 100% | 100%
CN(C(=O)Nc1nc(OCC(F)(F)F)cc(OCC(F)(F)F)n1)c1ccc(Cl)cn1 [Compound 124] | 100% | 100%
CN(C(=O)Nc1nc(OCC(F)(F)F)cc(OCC(F)(F)F)n1)c1ccc(F)cn1 [Compound 125] | 100% | 88%
CN(C(=O)Nc1nc(OCC(F)(F)F)cc(OCC(F)(F)F)n1)c1ccc(I)cn1 [Compound 126] | 100% | 100%
N#Cc1ccc(NC(=O)Nc2nc(OCC(F)(F)F)cc(OCC(F)(F)F)n2)nc1 [Compound 127] | 100% | 0%
CN(C(=O)Nc1nc(OCC(F)(F)F)cc(OCC(F)(F)F)n1)c1ccc(C#N)cn1 [Compound 128] | 100% | 88%
FC(F)(F)COc1cc(OCC(F)(F)F)nc(NC(=S)Nc2ccc(Br)cc2)n1 [Compound 129] | 100% | 100%
FC(F)(F)COc1cc(OCC(F)(F)F)nc(NC(=S)Nc2ccc(C(F)(F)F)cc2)n1 [Compound 130] | 100% | 100%
CN(C(=S)Nc1nc(OCC(F)(F)F)cc(OCC(F)(F)F)n1)c1ccc(C(F)(F)F)cc1 [Compound 131, N′-[4,6-bis(2,2,2-trifluoroethoxy)pyrimidin-2-yl]-N-methyl-N-[4-(trifluoromethyl)phenyl]thiourea] | 100% | 100%
CN(C(=S)Nc1nc(OCC(F)(F)F)cc(OCC(F)(F)F)n1)c1ccc(Br)cc1 [Compound 132] | 100% | 100%
CN(C(=S)Nc1nc(OCC(F)(F)F)cc(OCC(F)(F)F)n1)c1ccc(C(F)(F)F)nc1 [Compound 133] | 100% | 100%
O=C(Nc1nc(OCC(F)(F)F)cc(OCC(F)(F)F)n1)Nc1ccccc1OC(F)(F)F [Compound 134] | 100% | 100%
O=C(Nc1ccc(C(F)(F)F)nc1)Nc1nc(OCC(F)(F)F)c(Cl)c(OCC(F)(F)F)n1 [Compound 135] | 100% | 100%
O=C(Nc1ccc(OC(F)(F)F)cc1)Nc1nc(OCC(F)(F)F)c(Cl)c(OCC(F)(F)F)n1 [Compound 136] | 100% | 100%
O=C(Nc1ccc(Br)cc1)Nc1nc(OCC(F)(F)F)c(Cl)c(OCC(F)(F)F)n1 [Compound 137] | 100% | 88%
CN(C(=O)Nc1nc(OCC(F)(F)F)c(Cl)c(OCC(F)(F)F)n1)c1ccc(OC(F)(F)F)cc1 [Compound 138] | 100% | 100%
Cc1c(OCC(F)(F)F)nc(NC(=O)Nc2ccc(Br)cc2)nc1OCC(F)(F)F [Compound 139] | 88% | 88%
Cc1c(OCC(F)(F)F)nc(NC(=O)N(C)c2ccc(Br)cc2)nc1OCC(F)(F)F [Compound 140] | 100% | 100%
Cc1c(OCC(F)(F)F)nc(NC(=O)N(C)c2ccc(C(F)(F)F)cc2)nc1OCC(F)(F)F [Compound 141] | 100% | 100%
